# Reference: PMC6749524, “Identification of New Antifungal Agents Targeting Chitin Synthesis by a Chemical-Genetic Method” (Molecules, 2019)
# How the values were obtained:
# [1] = tested on: human embryonic kidney 293 cells; assay: Cytotoxicity assay (MTT); type: cell-based; details: concentration as high as 100 μg/mL, 48 hours
# Protocol: (§1) Human embryonic kidney 293 cells and Hela cells were seeded in triplicate in 96-well plates and grown to log-phase in DMEM medium with 10% FBS. Then, the medium was removed, and the cells were incubated with compounds at various concentrations ranging from 3.125 to 100 μg/mL in DMEM medium without FBS. After incubation for 48 hours, MTT reagent was added for further incubation for 4 hours. After we added 50 μL of DMSO, the absorbance was measured at 570 nm. The IC50 values were calculated based on a concentration-response curve.
# C. albicans = assay: Growth curve assay (OD600 over time); type: cell-based, Candida albicans; details: 50 μg/mL and 100 μg/mL, p < 0.05
# Protocol: Fresh cell cultures of WT yeast S. cerevisiae and Candida albicans ATCC10231 (OD600 = 0.8) were diluted in YPD medium (OD600 = 0.05). Then, IMB-D10 and IMB-F4 were added at concentrations ranging from 12.5 to 100 μg/mL. The cells were collected at different time points, and OD600 was measured with Multi-label Reader. Three experiments were performed independently, and the mean ± SD was calculated.
# Hela cells = assay: Cytotoxicity assay (MTT); type: cell-based, human; details: concentration as high as 100 μg/mL, 48 hours
# Protocol: as §1
# [2] = tested on: CHS1, CHS2, and CHS3 genes; assay: qRT-PCR gene expression; type: cell-based, S. cerevisiae; details: 25 μg/mL, 16 hours
# Protocol: WT yeast cells were grown to 10^5 CFU/mL in YPD medium and then treated with 25 μg/mL compounds or 0.25% DMSO for 16 hours at 30 °C. Then, the cells were collected by centrifugation at 1500 g for 5 min and washed twice with water. Total RNA was prepared using the Yeast RNA kit (OMEGA R6870-01, Norcross, GA, USA) and treated with DNase Ⅰ (TransGen GD201-01, Beijing, China) to remove genomic DNA. The resulting RNA was reverse-transcribed with the cDNA synthesis super-mix kit (TransGen AT311, Beijing, China). qRT-PCR was performed using Fast Universal SYBR Green Master (Rox, Roche, Mannheim, Gemany) and gene-specific primers (Table S1). The DNA level was measured using an Real-Time Quantitative Thermal Cycler (FTC-3000, Funglyn Biotech Inc, Toronto, Canada). The expression levels were correlated with the copy numbers used to amplify the gene to reach the threshold, then represented as the mean ± SEM relative to the cells treated with DMSO. One-way ANOVAs were performed to identify deviation from the mean.
# Chs2 = Chs2 (Saccharomyces cerevisiae, UniProt P14180); assay: Chitin synthase activity assay (WGA-coated plate); type: biochemical, S. cerevisiae; details: membrane protein from WT yeast
# Sequence of Chs2 (P14180 whole entry): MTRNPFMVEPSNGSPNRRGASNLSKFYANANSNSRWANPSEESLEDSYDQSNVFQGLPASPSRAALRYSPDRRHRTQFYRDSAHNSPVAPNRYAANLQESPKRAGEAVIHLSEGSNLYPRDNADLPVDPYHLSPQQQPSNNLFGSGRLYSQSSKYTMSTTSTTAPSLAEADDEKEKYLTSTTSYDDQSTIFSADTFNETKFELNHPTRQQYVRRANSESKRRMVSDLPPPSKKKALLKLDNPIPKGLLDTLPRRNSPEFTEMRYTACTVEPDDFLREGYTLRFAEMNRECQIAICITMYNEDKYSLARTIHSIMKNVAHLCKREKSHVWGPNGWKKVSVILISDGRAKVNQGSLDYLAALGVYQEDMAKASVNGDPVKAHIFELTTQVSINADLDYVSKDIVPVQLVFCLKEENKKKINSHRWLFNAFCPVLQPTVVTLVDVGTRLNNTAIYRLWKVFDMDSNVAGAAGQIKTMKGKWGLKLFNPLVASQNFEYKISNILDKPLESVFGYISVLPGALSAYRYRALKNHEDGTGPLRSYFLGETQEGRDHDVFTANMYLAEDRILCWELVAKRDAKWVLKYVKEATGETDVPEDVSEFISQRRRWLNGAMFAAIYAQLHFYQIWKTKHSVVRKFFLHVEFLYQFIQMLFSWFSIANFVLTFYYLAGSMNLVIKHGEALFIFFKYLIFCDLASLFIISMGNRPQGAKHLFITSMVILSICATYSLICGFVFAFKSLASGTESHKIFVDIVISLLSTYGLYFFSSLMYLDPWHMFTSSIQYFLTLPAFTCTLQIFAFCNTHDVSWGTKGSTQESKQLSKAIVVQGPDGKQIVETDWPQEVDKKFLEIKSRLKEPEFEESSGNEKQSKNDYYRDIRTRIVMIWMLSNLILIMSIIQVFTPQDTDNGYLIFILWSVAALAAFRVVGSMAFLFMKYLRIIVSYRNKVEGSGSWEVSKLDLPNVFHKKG
# Protocol: The inhibitory effect of compounds IMB-D10 and IMB-F4, on the activity of chitin synthases 1, 2, and 3, was measured by the procedure, described previously. In brief, WT yeast cells were grown in YPD medium to OD600 1–2. The cells were sedimented at 1500 g for 15 min at 4 °C and washed once with water. Then, the cells were resuspended in cold 100 mM Tris-HCl (pH 7.5) buffer containing protease inhibitors, and broken by 10 cycles of vortexing with acid-washed glass beads (1 min each). The broken cells were centrifuged for 15 min at 1500g to eliminate cell wall and debris. One volume of supernatant was placed on 2 volumes of 10% w/w sucrose in 100 mM Tris-HCl pH 7.5 and centrifuged at 55,000 g for 2 hours. The pellet was resuspended in 50 mM Tris-HCl pH 7 and used as membrane protein of Chs3. For Chs1 and Chs2, the membrane protein was pretreated with 80 μg/mL trypsin for 30 min at 30 °C.
# To assess the enzyme activity of Chs1, the assay mixture contained 15 μg membrane protein, 5 mM MgCl2, 32 mM Tris-maleate (pH6.5), 0.2% digitonin, 40 mM N-acetyl-glucosamine (GlcNAc), and 4 mM UDP-GlcNAc. For Chs2, the mixture contained 15 μg pretreated membrane protein, 1.6 mM CoCl2, 32 mM Tris-HCl (pH 8), 40 mM GlcNAc, and 4 mM UDP-GlcNAc. For Chs3, the mixture contained pretreated membrane protein 15 μg, 1.6 mM CoCl2, 5 mM NiCl2, 32 mM Tris-HCl (pH 8), 40 mM GlcNAc, and 4 mM UDP-GlcNAc. Different concentrations of IMB-D10 and IMB-F4 were added to the mixture, and the reaction without UDP-GlcNAc was used to measure background absorbance. The 96-well plate coated with 50 μg/mL wheat germ agglutinin (WGA) was washed three times with water, and the reaction mixture was added into the wells and incubated at 30 °C for 60 min. The reaction was stopped by 50 mM EDTA, and the plate was emptied and washed with a large volume of water, followed by the addition of 200 μL 0.5 μg/mL WGA-HRP and incubation for 5 min at room temperature. The plate was washed 5 times with running distilled water. Then, the Tetramethylbenzidine (TMB) reagent was added, and the optical density at 600 nm (OD600) was immediately detected with Multilabel Reader (Envision, PE, Pontyclun, UK). All reactions were performed in triplicate.
Molecule,growth inhibition (toxicity) [1],growth of C. albicans over time (C. albicans),growth inhibition (toxicity) (Hela cells),"expression levels of CHS1, CHS2, and CHS3 genes [2]",IC50 Chs2 (Chs2) [µg/mL]
"COc1cc(OC)cc(C(=O)N(CCn2ccnc2)c2nc3ccc(OC)cc3s2)c1 [IMB-F4, N-(2-(1H-imidazol-1-yl)ethyl)-3,5-dimethoxy-N-(6-methoxybenzo[d]thiazol-2-yl)benzamide]",No growth inhibition,growth inhibition was observed after incubation for 6 hours,No growth inhibition,–,–
N-(2-(diethylamino) ethyl)-N-(7-hydroxy-4-methoxybenzo[d]thiazol -2-yl)-2-oxo-2H-chromene-3-carboxamide [IMB-D10],–,reduced after 4 hours incubation,–,did not decrease significantly,3.516 ± 1.35
